Results on 15 molecules are retold here after patent publication US20100267672A1, “NOVEL COMPOUNDS OF REVERSE-TURN MIMETICS, METHOD FOR MANUFACTURING THE SAME AND USE THEREOF” (Choongwae Pharma Corporation, priority 2009, published 2010).

SMILES strings stand for the structures. Bounds are passed on as bounds.

The test system of data set [1] is human AML cell line, MV4-11. In words: Anticancer activity in acute myeloid leukemia (AML) animal model. Type of data set: in vivo, Balb/C nude mice. The following applies: intravenously once a day, five times per week for two weeks, MV4-11 implanted nude mice, Day 12 vs Day 1; for inhibition in vivo at 25 mg/kg: Mus musculus, iv, 288 h, read-out: Tumor growth Inhibition Rate. Here is the method:
Test materials were prepared in the form of prodrugs to increase the solubility of compounds of interest. A phosphate functional group which may be either a monosodium or disodium form was introduced as a prodrug substituent.
The human AML cell line, MV4-11, was purchased (ATCC, U.S.A.) and cultured at 37° C. under a 5% CO2 condition in Iscove's Modified Dulbecco's Medium (GIBCO, cat# 21056) supplemented with 10% fetal bovine serum (GIBCO, cat# 25030-081). Female Balb/C nude mice (OrientBio, Sungnam-city, Korea), 5-6 weeks old, were acclimated to the breeding room. Using a sterilized syringe, a mixture of 1:1 of MV4-11 cells: matrigel (v/v) was implanted in an amount of 5×10^6/mouse beneath the axilla of each of the mice. When tumor was formed 2 weeks after the implantation, the mice were divided into five (5) groups in such a manner that a minimum deviation with regard to tumor size and body weight was obtained among the groups. The test materials were dissolved in physiological saline and intravenously injected at a dose of 10 ml/kg once a day and five times per week for two weeks (administration days of test materials, D1˜D5, D8˜D12). For a control, only physiological saline was used. The tumor size was determined as calculated by the following equation: Long Axis×Short Axis×Short Axis/2. The Long and Short Axes of the tumor were measured in length using a digital caliper (Mitsutoyo, Japan). The anticancer activity of the test materials was numerated according to the following equation.
Tumor growth Inhibition Rate A (%)=100×[1−(b−a)/(Ref b−Ref a)] […]
a=mean tumor size of drug-administered group on Day 1 b=mean tumor size of drug-administered group on Day 12
Ref a=mean tumor size of the control on Day 1
Ref b=mean tumor size of the control on Day 12
When the mean tumor size of the drug-administered group on Day 12 was smaller than that of just before the administration of the test materials, it is indicated as Regression (>100%).

The target in data set [2] is T1, hERG (Homo sapiens, UniProt Q12809).
T1 construct: expressed in transfected cells; host or cells: HEK293
T1 sequence (Q12809 whole entry): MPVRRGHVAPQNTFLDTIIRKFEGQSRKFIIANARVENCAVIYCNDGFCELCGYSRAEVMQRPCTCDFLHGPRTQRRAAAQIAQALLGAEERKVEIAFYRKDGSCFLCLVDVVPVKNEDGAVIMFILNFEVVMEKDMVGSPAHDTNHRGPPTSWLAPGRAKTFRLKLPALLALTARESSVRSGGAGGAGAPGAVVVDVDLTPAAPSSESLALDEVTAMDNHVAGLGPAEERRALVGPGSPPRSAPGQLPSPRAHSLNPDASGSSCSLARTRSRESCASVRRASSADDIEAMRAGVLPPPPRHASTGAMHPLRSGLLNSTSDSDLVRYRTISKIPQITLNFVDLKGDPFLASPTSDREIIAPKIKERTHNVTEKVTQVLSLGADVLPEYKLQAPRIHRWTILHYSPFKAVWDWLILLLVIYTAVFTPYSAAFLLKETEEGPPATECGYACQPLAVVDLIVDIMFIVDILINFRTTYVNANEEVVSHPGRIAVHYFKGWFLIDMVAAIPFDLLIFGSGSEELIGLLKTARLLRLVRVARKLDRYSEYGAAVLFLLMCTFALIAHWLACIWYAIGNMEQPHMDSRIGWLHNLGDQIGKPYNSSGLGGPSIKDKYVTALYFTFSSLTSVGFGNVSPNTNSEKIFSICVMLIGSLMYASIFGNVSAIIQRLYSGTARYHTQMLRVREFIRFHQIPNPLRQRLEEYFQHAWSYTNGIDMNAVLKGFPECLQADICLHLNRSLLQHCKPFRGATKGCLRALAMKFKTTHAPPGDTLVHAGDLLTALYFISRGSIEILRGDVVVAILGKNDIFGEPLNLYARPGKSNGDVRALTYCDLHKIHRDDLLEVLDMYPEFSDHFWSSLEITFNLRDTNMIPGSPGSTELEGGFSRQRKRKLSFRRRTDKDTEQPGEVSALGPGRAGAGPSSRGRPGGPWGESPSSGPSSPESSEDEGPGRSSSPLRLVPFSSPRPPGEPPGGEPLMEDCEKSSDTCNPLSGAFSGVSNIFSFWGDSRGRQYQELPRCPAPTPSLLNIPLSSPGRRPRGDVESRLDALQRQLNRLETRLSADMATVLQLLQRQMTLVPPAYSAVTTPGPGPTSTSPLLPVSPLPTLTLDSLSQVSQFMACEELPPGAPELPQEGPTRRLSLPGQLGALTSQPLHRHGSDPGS
Description: In vitro cardiotoxicity assay: inhibitory activity against hERG (whole-cell patch clamp). Type of data set: cell-based. The following applies: hERG-transfected HEK293 cells, tail current of outward hERG K+ currents; read-out: Cardiotoxicity (hERG Inhibiting Activity Assay, IC50). The method, then: HEK293 was transfected with hERG (human Ether-à-go-go Related Gene) cDNA for 48 hrs using Lipofectamine 2000 (Invitrogen, USA). The transfected HEK293 cells were cultured in Modified Dulbecco's Medium (MEM, Gibco, 1 L) supplemented with 10% FBS, sodium pyruvate (10 ml), penicillin/streptomycin (10 ml) and Zeocin (100 μg/ml, Invitrogen) at 37° C. under 5% CO2. After being detached from incubation vessels by trypsinization, the HEK293 cells were placed in a chamber for patch clamp recording. A whole-cell patch clamp method was used to record hERG K+ currents in HEK293 cells using the following intra/extracellular solutions.
The membrane potential was depolarized from −80 mV to +20 mV for 1,000 ms in a whole-cell patch clamp mode and then repolarized to −40 mV for 1,000 ms, during which the tail current of outward hERG K+ currents was recorded. In this regard, the concentrations of the compounds that are required for 50% inhibition of the current were represented as IC50.
The risk of cardiotoxicity has been raised in many drugs. Some of them were withdrawn from the market because they caused a sudden death due to the cardiotoxicity thereof. The cardiotoxicity of drugs is associated with the extension of QT intervals on electrocardiograms. Particularly, most of the drugs extending QT intervals are known to inhibit IKr channels (Bernard Fermini and Anthony A. Fossa, Nature Reviews Drug Discovery, 2003, 2, 439-447). […] In this example, the risk of cardiotoxicity was evaluated using human hERG channel-expressing mammal cells, which are internationally recognized as a system (ICH guideline, S7B, Step 4, 12, May, 2005). Although pharmaceutical activity of drug should be taken into consideration, a drug is evaluated as having a low cardiotoxicity risk when IC50 thereof is 10 μM or higher. […] Having higher IC50, compound A1 was evaluated to be safer than compound A, and compounds B1, B2 and B3 than compound B.

Data set [3] is described as follows: Solubility of monosodium and disodium prodrug forms. The settings on record: aqueous medium; prodrug prepared by adding sodium hydroxide to P2. Type of data set: physicochemical. The method, then: The compounds were prepared in the form of prodrugs to improve the solubility thereof. Phosphate may be introduced as a possible prodrug substituent which can exist as in either monosodiumphosphate or disodiumphosphate form.
(§1) This prodrug was prepared by adding sodium hydroxide to P2, which was synthesized according to Example 9. Both monosodium and disodium forms of the prodrug show a solubility of up to 400 mg/ml. Both forms have advantageous properties as a composition for I.V. injection in that a monosodium form has pH 4.45 and a disodium form has pH of 7.62.

Data set [4] is described as follows: pH of monosodium and disodium prodrug forms. Type of data set: physicochemical. The settings on record: prodrug form as a composition for I.V. injection. Here is the method:
as §1
In the graph, the horizontal axis represents the added amounts of sodium hydroxide. In the graph, the first and second points of inflection correspond to the time of production of monosodium and disodium forms, respectively.

As for `Nc1ccn([C@@H]2O[C@H](CO)[C@@H](O)[C@@H]2O)c(=O)n1` [Ara-C, reference compound], the “Tumor growth Inhibition Rate” value in data set [1] (dose 25 mg/kg, 25 mg/kg) is given as 66%; in data set [1] (dose 50 mg/kg), 77%.

With `C=CCN1CC(=O)N2[C@@H](Cc3ccc(OP(=O)(O)O)cc3)C(=O)N(Cc3cccc4c(C(=O)CC)cn(C)c34)C[C@@H]2N1C(=O)NCc1ccccc1` [Compound A1], the IC50 in data set [2] came out at 80 µM. In data set [1] (dose 25 mg/kg), the inhibition in vivo at 25 mg/kg was above 100%.

On to `C=CCN1CC(=O)N2[C@@H](Cc3ccc(OP(=O)(O)O)cc3)C(=O)N(Cc3cccc4c(C(C)=O)cn(C)c34)C[C@@H]2N1C(=O)NCc1ccccc1` [Compound A2], for which, in data set [1] (dose 25 mg/kg), the inhibition in vivo at 25 mg/kg is above 100%. On the same count and under the same terms, under `C=CCN1CC(=O)N2[C@@H](Cc3ccc(OP(=O)(O)O)cc3)C(=O)N(Cc3cccc4c(C(C)=O)cn(CCC)c34)C[C@@H]2N1C(=O)NCc1ccccc1` [Compound A3] stands above 100%.

In the case of `C=CCN1CC(=O)N2[C@@H](Cc3ccc(OP(=O)(O)O)cc3)C(=O)N(Cc3cccc4c(C(C)=O)c[nH]c34)C[C@@H]2N1C(=O)NCc1ccccc1` [Compound A], in data set [2], the IC50 is 14 µM. Besides, the inhibition in vivo at 25 mg/kg in data set [1] (dose 25 mg/kg) is 61%. As for `C=CCN1CC(=O)N2[C@@H](Cc3ccc(OP(=O)(O)O)cc3)C(=O)N(Cc3cccc4c(C(=O)CC(C)(C)C)cn(CCC)c34)C[C@@H]2N1C(=O)NCc1ccccc1` [Compound B1], the half-maximal inhibitory concentration (IC50) in data set [2] turned out to be 18 µM. The inhibition in vivo at 25 mg/kg in data set [1] (dose 25 mg/kg) was above 100%. On the same counts, the results for `C=CCN1CC(=O)N2[C@@H](Cc3ccc(OP(=O)(O)O)cc3)C(=O)N(Cc3cccc4c(C(=O)CC(C)(C)C)cn(C)c34)C[C@@H]2N1C(=O)NCc1ccccc1` [Compound B2] are 25 µM and above 100%.

For the molecule `C=CCN1CC(=O)N2[C@@H](Cc3ccc(OP(=O)(O)O)cc3)C(=O)N(Cc3cccc4c(C(=O)CC(C)(C)C)cn(CCCCCC)c34)C[C@@H]2N1C(=O)NCc1ccccc1` [Compound B3], the half-inhibitory concentration (IC50) in data set [2] is 20 µM. Besides, the inhibition in vivo at 25 mg/kg in data set [1] (dose 25 mg/kg) is 80%. For `C=CCN1CC(=O)N2[C@@H](Cc3ccc(OP(=O)(O)O)cc3)C(=O)N(Cc3cccc4c(C(=O)CC(C)(C)C)c[nH]c34)C[C@@H]2N1C(=O)NCc1ccccc1` [Compound B], the IC50 in data set [2] was 1.6 µM. Moreover, the inhibition in vivo at 25 mg/kg in data set [1] (dose 25 mg/kg) was found to be 49%. As for `C=CCN1CC(=O)N2[C@@H](Cc3ccc(OP(=O)(O)O)cc3)C(=O)N(Cc3cccc4c(C(=O)C5CC5)cn(C)c34)C[C@@H]2N1C(=O)NCc1ccccc1` [Compound C1], the inhibition in vivo at 25 mg/kg in data set [1] (dose 25 mg/kg) is above 100%. As for `C=CCN1CC(=O)N2[C@@H](Cc3ccc(OP(=O)(O)O)cc3)C(=O)N(Cc3cccc4c(C(=O)C5CC5)cn(CC)c34)C[C@@H]2N1C(=O)NCc1ccccc1` [Compound C2], the inhibition in vivo at 25 mg/kg in data set [1] (dose 25 mg/kg) is above 100%.

Consider `C=CCN1CC(=O)N2[C@@H](Cc3ccc(OP(=O)(O)O)cc3)C(=O)N(Cc3cccc4c(C(=O)C5CC5)cn(CCCC)c34)C[C@@H]2N1C(=O)NCc1ccccc1` [Compound C3], for which the inhibition in vivo at 25 mg/kg in data set [1] (dose 25 mg/kg) stood at 70%. In the case of `C=CCN1CC(=O)N2[C@@H](Cc3ccc(OP(=O)(O)O)cc3)C(=O)N(Cc3cccc4c(C(=O)C5CC5)c[nH]c34)C[C@@H]2N1C(=O)NCc1ccccc1` [Compound C], the inhibition in vivo at 25 mg/kg in data set [1] (dose 25 mg/kg) was found to be 25%.

For `C=CCN1CC(=O)N2[C@@H](Cc3ccc(OP(=O)([O-])[O-])cc3)C(=O)N(Cc3cccc4c(C(C)=O)cn(C)c34)C[C@@H]2N1C(=O)NCc1ccccc1.[Na+].[Na+]` [disodium form], in data set [3], the solubility was at most 400 mg/mL. In data set [4], the pH is given as 7.62. As to `C=CCN1CC(=O)N2[C@@H](Cc3ccc(OP(=O)([O-])O)cc3)C(=O)N(Cc3cccc4c(C(C)=O)cn(C)c34)C[C@@H]2N1C(=O)NCc1ccccc1.[Na+]` [monosodium form, Sodium 4-(((6S,9AS)-1-(benzylcarbamoyl)-8-((3-acetyl-1-methyl-1H-indol-7-yl)methyl)-2-allyl-octahydro-4,7-dioxo-1H-pyrazino[2,1-C][1,2,4]triazin-6-yl)methyl)phenyl hydrogenphosphate], the solubility in data set [3] was at most 400 mg/mL. Moreover, in data set [4], the pH was 4.45.
